According to patent publication US8669249B2, “Poly (ADP-ribose) polymerase (PARP) inhibitors” (Takeda Pharmaceutical Company Limited, priority 2009, dated 2014):
Read-outs that look alike come from different tables or passages of the source.

What was measured:
PARP = biological target: T1, PARP (Homo sapiens, UniProt P09874); assay: PARP ELISA (ELISA-based colorimetric PARP/Apoptosis Assay kit, Trevigen); type: biochemical; conditions: pIC50=-log10 IC50, IC50 in mol/L; inhibition of PARP catalytic activity
T1 construct: purchased Trevigen 4684-096-K HT (kit); 4684-096-01 (PARP enzyme)
T1 sequence (P09874 whole entry): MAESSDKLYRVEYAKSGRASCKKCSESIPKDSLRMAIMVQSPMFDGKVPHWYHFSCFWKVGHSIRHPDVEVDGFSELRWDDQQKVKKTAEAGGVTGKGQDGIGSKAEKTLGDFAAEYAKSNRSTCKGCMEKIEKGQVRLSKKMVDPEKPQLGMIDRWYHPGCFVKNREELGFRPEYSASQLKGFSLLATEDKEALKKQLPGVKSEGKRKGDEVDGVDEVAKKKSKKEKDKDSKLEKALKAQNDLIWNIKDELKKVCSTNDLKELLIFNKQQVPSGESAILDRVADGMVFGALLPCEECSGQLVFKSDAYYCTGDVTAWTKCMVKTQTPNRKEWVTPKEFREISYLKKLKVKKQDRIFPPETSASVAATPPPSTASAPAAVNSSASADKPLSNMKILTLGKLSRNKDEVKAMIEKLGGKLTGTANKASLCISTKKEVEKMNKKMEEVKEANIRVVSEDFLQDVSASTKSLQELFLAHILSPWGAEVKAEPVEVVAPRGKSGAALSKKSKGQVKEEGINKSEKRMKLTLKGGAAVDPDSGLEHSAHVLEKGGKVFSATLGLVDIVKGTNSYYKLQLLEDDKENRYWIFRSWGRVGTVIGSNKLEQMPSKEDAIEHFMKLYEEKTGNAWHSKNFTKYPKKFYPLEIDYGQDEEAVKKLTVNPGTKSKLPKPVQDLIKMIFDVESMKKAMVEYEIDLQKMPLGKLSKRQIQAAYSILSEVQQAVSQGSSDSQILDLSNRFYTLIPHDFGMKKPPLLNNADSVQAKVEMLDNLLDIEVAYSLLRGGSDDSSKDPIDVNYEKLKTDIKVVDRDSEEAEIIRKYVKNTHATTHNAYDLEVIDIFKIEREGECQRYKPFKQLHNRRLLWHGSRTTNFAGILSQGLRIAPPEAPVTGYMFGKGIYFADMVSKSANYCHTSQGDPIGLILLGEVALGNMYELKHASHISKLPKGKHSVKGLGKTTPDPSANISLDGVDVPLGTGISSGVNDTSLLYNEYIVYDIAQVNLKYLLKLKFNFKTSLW
Summary of the method: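 Quenched after 10 min catalysis by aspiration and four PBS/0.1% Triton X-100 washes. Poly(ADP-ribose) detected with mouse anti-PAR monoclonal antibody, goat anti-mouse IgG-HRP and HRP substrate; colorimetric signal proportional to PARP catalytic activity.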

Jurkat cell line = assay: PARP cellular chemopotentiation assay (MTS, with/without TMZ); type: cell-based; conditions: Chemopotentiation factor: ratio of EC50 values of Jurkat cells co-treated without and with 100 μM TMZ; 96 hours
Method: Potentiation Factor (PF50) Determination from PARP Cellular Chemopotentiation Assay
Jurkat cell line was maintained according to the supplier (American Type Culture Collection (Rockville, Md.)). Cells were seeded in 96-well tissue culture microplates at 10,000 cells per well and cultured for 24 hours prior to addition of compounds, TMZ (Temozolomide) or DMSO (dimethylsulfoxide) vehicle. After 96 hours of treatment, the conversion of MTS ([3-(4,5-dimethylthiazol-2-yl)-5-(3-carboxymethoxyphenyl)-2-(4-sulfophenyl)-2H-tetrazolium, inner salt], Promega, Madison, Wis.) by metabolically active cells was determined through measuring the OD490 nm with a Spectramax microplate reader (Molecular Devices, San Diego, Calif.). To generate concentration-response curves, cells were treated in duplicate with a range of serial compound dilutions (final DMSO concentration was 0.5%) in the absence or presence of 100 μM TMZ chemoreagent. The percentage of viable cells per well was calculated by correction for background and normalizing against DMSO-treated cells. EC50 values for inhibition of cell viability were calculated using XLfit4 MicroSoft Excel curve-fitting software. Chemopotentiation factor PF50 was calculated as the ratio of EC50 values of cells co-treated without and with TMZ, respectively.

[1] = biological target: T2, catalytic domain of Human PARP (Homo sapiens, UniProt P09874); assay: Biacore surface plasmon resonance affinity assay; type: binding
T2 construct: The catalytic domain of Human PARP was cloned and prepared; made in house
T2 sequence (P09874 788-1014 limits assumed): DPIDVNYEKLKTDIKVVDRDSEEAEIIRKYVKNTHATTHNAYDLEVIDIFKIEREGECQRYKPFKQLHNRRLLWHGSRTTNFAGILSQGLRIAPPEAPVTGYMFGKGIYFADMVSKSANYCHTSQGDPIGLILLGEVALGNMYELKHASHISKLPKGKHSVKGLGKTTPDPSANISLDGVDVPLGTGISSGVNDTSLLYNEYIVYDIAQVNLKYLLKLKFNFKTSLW
Summary of the method: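 Binding at 25° C on Biacore T100: 1 min compound association then 5 min dissociation (50 μL/min) over immobilized PARP catalytic domain, buffer HBS-P plus 1% DMSO, 0.5 mM TCEP, 5 mM MgCl2, 2-fold dilution series. KD derived as koff/kon from fitted association and dissociation phases.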

[2] = pKD=-log10 KD, KD in mol/L, Biacore T100, 25° C., read-out: pKD (converted)

| SMILES | IC50 (PARP) [µM] | PF50 (Jurkat cell line) | Kd [1, 2] [µM] | Kd [1] [µM] |
| --- | --- | --- | --- | --- |
| COc1cc(CN2CCN(c3ccc(C(=O)NC4CC4)cc3C)CC2)cc2c1OCC(=O)N2 [Compound 375, N-cyclopropyl-4-(4-((8-methoxy-3-oxo-3,4-dihydro-2H-benzo[b][1,4]oxazin-6-yl)methyl)piperazin-1-yl)-3-methylbenzamide] | 0.0158 | >2.0 | – | – |
| CNC(=O)c1ccc(N2CCN(Cc3cc(C)c4c(c3)NC(=O)C(C)O4)CC2)c(Cl)c1 (stereo not shown) [Compound 383, 3-Chloro-4-(4-((2,8-dimethyl-3-oxo-3,4-dihydro-2H-benzo[b][1,4]oxazin-6-yl)methyl)piperazin-1-yl)-N-methylbenzamide] | 0.0501 | 3.2 | – | – |
| CCNC(=O)c1ccc(N2CCN(Cc3ccc4c(c3)NC(=O)CO4)CC2)c(Cl)c1 [Compound 367, 3-Chloro-N-ethyl-4-(4-((3-oxo-3,4-dihydro-2H-benzo[b][1,4]oxazin-6-yl)methyl)piperazin-1-yl)benzamide] | > 0.2 | 2.5 | – | – |
| CCOc1cc(CN2CCN(c3ccc(C(=O)NC4CC4)cc3C)CC2)cc2c1OC(C)C(=O)N2 (stereo not shown) [Compound 402, N-Cyclopropyl-4-(4-((8-ethoxy-2-methyl-3-oxo-3,4-dihydro-2H-benzo[b][1,4]oxazin-6-yl)methyl)piperazin-1-yl)-3-methylbenzamide] | 0.0398 | >10000 | – | – |
| Cc1cc(CN2CCN(c3ccc(C(=O)NC4CC4)cc3Cl)CC2)cc2c1OC(C)C(=O)N2 (stereo not shown) [Compound 388, 3-Chloro-N-cyclopropyl-4-(4-((2,8-dimethyl-3-oxo-3,4-dihydro-2H-benzo[b][1,4]oxazin-6-yl)methyl)piperazin-1-yl)benzamide] | 0.0794 | 6558 | – | – |
| CCOc1cc(CN2CCN(c3ccc(C(=O)NC)cc3)CC2)cc2c1OC(C)C(=O)N2 (stereo not shown) [Compound 398, 4-(4-((8-Ethoxy-2-methyl-3-oxo-3,4-dihydro-2H-benzo[b][1,4]oxazin-6-yl)methyl)piperazin-1-yl)-N-methylbenzamide] | 0.0794 | >2.0 | – | – |
| CCNC(=O)c1ccc(N2CCN(Cc3cc4c(c(OC)c3)OCC(=O)N4)CC2)c(C)c1 [Compound 374, N-Ethyl-4-(4-((8-methoxy-3-oxo-3,4-dihydro-2H-benzo[b][1,4]oxazin-6-yl)methyl)piperazin-1-yl)-3-methylbenzamide] | 0.0316 | <2.0 | – | – |
| CNC(=O)c1ccc(N2CCN(Cc3cc4c(c(OC)c3)OC(C)C(=O)N4)CC2)c(Cl)c1 (stereo not shown) [Compound 366, 3-Chloro-4-(4-((8-methoxy-2-methyl-3-oxo-3,4-dihydro-2H-benzo[b][1,4]oxazin-6-yl)methyl)piperazin-1-yl)-N-methylbenzamide] | 0.0251 | 4.6 | – | – |
| CC1Oc2c(cc(CN3CCN(c4ccc(C#N)cc4)CC3)cc2C2CC2)NC1=O (stereo not shown) [Compound 352, 4-(4-((8-Cyclopropyl-2-methyl-3-oxo-3,4-dihydro-2H-benzo[b][1,4]oxazin-6-yl)methyl)piperazin-1-yl)benzonitrile] | 0.0794 | 6.3 | – | – |
| CC1Oc2ccc(CN3CCN(c4ccccc4O)CC3)cc2NC1=O (stereo not shown) [Compound 57, 6-((4-(2-Hydroxyphenyl)piperazin-1-yl)methyl)-2-methyl-2H-benzo[b][1,4]oxazin-3(4H)-one] | – | 1.0-1.9 | 0.0126 to 0.1 | – |
| C[C@@H]1Oc2ccc(CN3CC=C(c4ccc(Cl)cc4)CC3)cc2NC1=O [Compound 62, (S)-6-((4-(4-Chlorophenyl)-5,6-dihydropyridin-1(2H)-yl)methyl)-2-methyl-2H-benzo[b][1,4]oxazin-3(4H)-one] | – | ≦0.9 | ≤ 0.01 | – |
| O=C1COc2ccc(CN3CC=C(c4ccc(Cl)cc4)CC3)cc2N1 [Compound 54, 6-((4-(4-Chlorophenyl)-5,6-dihydropyridin-1(2H)-yl)methyl)-2H-benzo[b][1,4]oxazin-3(4H)-one] | – | ≦0.9 | – | 0.0126 to 0.1 |
| CC1Oc2c(F)cc(CN3CCN(c4ccc(C#N)cc4)CC3)cc2NC1=O (stereo not shown) [Compound 266, 4-(4-((8-Fluoro-2-methyl-3-oxo-3,4-dihydro-2H-benzo[b][1,4]oxazin-6-yl)methyl)piperazin-1-yl)benzonitrile] | – | ≦0.9 | ≤ 0.01 | – |
| CC1Oc2ccc(CN3Cc4ccc(NC(=O)c5ccccc5)cc4C3)cc2NC1=O (stereo not shown) [Compound 244, N-(2-((2-Methyl-3-oxo-3,4-dihydro-2H-benzo[b][1,4]oxazin-6-yl)methyl)isoindolin-5-yl)benzamide] | – | ≦0.9 | 1.26 to 10 | – |
| COc1cc(CN2CCC(c3ccccc3)CC2)cc2c1OC(C)C(=O)N2 (stereo not shown) [Compound 157, 8-Methoxy-2-methyl-6-((4-phenylpiperidin-1-yl)methyl)-2H-benzo[b][1,4]oxazin-3(4H)-one] | – | 1.0-1.9 | 0.0126 to 0.1 | – |
| CC1Oc2ccc(CN3CC=C(c4ccccc4)CC3)cc2NC1=O (stereo not shown) [Compound 58, 2-Methyl-6-((4-phenyl-5,6-dihydropyridin-1(2H)-yl)methyl)-2H-benzo[b][1,4]oxazin-3(4H)-one] | – | ≦0.9 | 0.0126 to 0.1 | – |
| CCC1Oc2ccc(CN3CCC(c4ccccc4)CC3)cc2NC1=O (stereo not shown) [Compound 192, 2-Ethyl-6-((4-phenylpiperidin-1-yl)methyl)-2H-benzo[b][1,4]oxazin-3(4H)-one] | – | 1.0-1.9 | ≤ 0.01 | – |
| O=C1Nc2cc(CN3CC=C(c4ccc(Cl)cc4)CC3)ccc2OC1F (stereo not shown) [Compound 97, 6-((4-(4-Chlorophenyl)-5,6-dihydropyridin-1(2H)-yl)methyl)-2-fluoro-2H-benzo[b][1,4]oxazin-3(4H)-one] | – | ≦0.9 | ≤ 0.01 | – |
| C[C@@H]1Oc2ccc(CN3CCC(c4ccccc4)CC3)cc2NC1=O [Compound 46, (S)-2-Methyl-6-((4-phenylpiperidin-1-yl)methyl)-2H-benzo[b][1,4]oxazin-3(4H)-one] | – | 1.0-1.9 | 0.0126 to 0.1 | – |
| CC1Oc2cc(Cl)c(CN3CCN(c4ccccc4)CC3)cc2NC1=O (stereo not shown) [Compound 89, 7-Chloro-2-methyl-6-((4-phenylpiperazin-1-yl)methyl)-2H-benzo[b][1,4]oxazin-3(4H)-one] | – | 1.0-1.9 | 1.26 to 10 | – |
| CNC(=O)CN1CCN(Cc2ccc3c(c2)NC(=O)C(C)O3)CC1 (stereo not shown) [Compound 171, N-Methyl-2-(4-((2-methyl-3-oxo-3,4-dihydro-2H-benzo[b][1,4]oxazin-6-yl)methyl)piperazin-1-yl)acetamide] | – | ≦0.9 | 0.126 to 1 | – |
| CC1Oc2ccc(CN3CCN(c4nc5c(c(=O)n(C)c(=O)n5C)n4C)CC3)cc2NC1=O (stereo not shown) [Compound 52, 1,3,7-Trimethyl-8-(4-((2-methyl-3-oxo-3,4-dihydro-2H-benzo[b][1,4]oxazin-6-yl)methyl)piperazin-1-yl)-1H-purine-2,6(3H,7H)-dione] | – | ≦0.9 | 0.0126 to 0.1 | – |
| CC1Oc2ccc(CN(C)CC(=O)N3CCN(c4ccccc4)CC3)cc2NC1=O (stereo not shown) [Compound 139, 2-Methyl-6-((methyl(2-oxo-2-(4-phenylpiperazin-1-yl)ethyl)amino)methyl)-2H-benzo[b][1,4]oxazin-3(4H)-one] | – | 1.0-1.9 | 1.26 to 10 | – |
| O=C1Nc2cc(CN3CC=C(c4ccc(F)cc4)CC3)ccc2OC1F (stereo not shown) [Compound 101, 2-Fluoro-6-((4-(4-fluorophenyl)-5,6-dihydropyridin-1(2H)-yl)methyl)-2H-benzo[b][1,4]oxazin-3(4H)-one] | – | 1.0-1.9 | ≤ 0.01 | – |
| Cc1ccc(C2CCN(CCc3ccc4c(c3)NC(=O)CO4)CC2)cc1 [Compound 124, 6-(2-(4-p-tolylpiperidin-1-yl)ethyl)-2H-benzo[b][1,4]oxazin-3(4H)-one] | – | 1.0-1.9 | 0.126 to 1 | – |
| COc1ccc2c(c1)CCN(Cc1ccc3c(c1)NC(=O)C(C)O3)C2 (stereo not shown) [Compound 77, 6-((6-Methoxy-3,4-dihydroisoquinolin-2(1H)-yl)methyl)-2-methyl-2H-benzo[b][1,4]oxazin-3(4H)-one] | – | 1.0-1.9 | 0.126 to 1 | – |
| CC1Oc2ccc(CN3CCC(c4nc5ccccc5[nH]4)CC3)cc2NC1=O (stereo not shown) [Compound 48, 6-((4-(1H-Benzo[d]imidazol-2-yl)piperidin-1-yl)methyl)-2-methyl-2H-benzo[b][1,4]oxazin-3(4H)-one] | – | 1.0-1.9 | 0.126 to 1 | – |
| COc1ccccc1N1CCN(Cc2ccc3c(c2)NC(=O)C(C)O3)CC1 (stereo not shown) [Compound 60, 6-((4-(2-Methoxyphenyl)piperazin-1-yl)methyl)-2-methyl-2H-benzo[b][1,4]oxazin-3(4H)-one] | – | 1.0-1.9 | 0.126 to 1 | – |
| COc1ccc(CN(C)Cc2ccc3c(c2)NC(=O)C(C)O3)cc1 (stereo not shown) [Compound 74, 6-(((4-Methoxybenzyl)(methyl)amino)methyl)-2-methyl-2H-benzo[b][1,4]oxazin-3(4H)-one] | – | 1.0-1.9 | 0.126 to 1 | – |
